According to patent US7435431B2, “Method for controlling body weight in estrogen-insufficient women” (Abbott Laboratories, priority 2004, dated 2008):

Experiments:
Assay type in all cases: in vivo, rat
[1] = tested on: ovariectomized (OVX) rats; test: Experiment III: serum, urine and bone mineral and biochemical measures
Description: (§1) After five days of acclimatization, study animals were randomly assigned to one of 15 groups (n=10/group) and placed in individual cages. Rats were either sham-operated (SHAM) or ovariectomized (OVX) and fed casein-based diets for forty days. To ensure that sufficient bone loss has occurred in the OVX animals, bone mineral density was assessed via Dual Energy X-ray Absorptiometry (DEXA) prior to treatment. Groups 1 and 2 were fed casein-based diets throughout the entire length of the study and served as the control groups. Treatments were initiated for Groups 3-15 forty days post ovariectomy surgery and followed for 60 days. Bone mineral density was assessed before and after treatments. […] Urine was collected in acid-washed tubes, acidified with 0.03 ml of 6 mol/L of HCl per ml of urine and the total volume was measured. […] Initial and weekly body weights were measured. Sham animals were fed ad libitum and their precise food intakes were measured every three days. Before each feeding, the food remaining was weighed and the amount ingested was calculated. […]
(§2) The composition of the semi-purified casein-based diets are described in the following table. […] Sham animals were fed ad libitum and their precise food intakes were measured every three days. Before each feeding, the food remaining was weighed and the amount ingested was calculated. […]

[2] = tested on: ovariectomized (OVX) rats; test: Experiment III: bone mineral density and bone mineral content (DEXA)
Description: (§3) After five days of acclimatization, study animals were randomly assigned to one of 15 groups (n=10/group) and placed in individual cages. Rats were either sham-operated (SHAM) or ovariectomized (OVX) and fed casein-based diets for forty days. To ensure that sufficient bone loss has occurred in the OVX animals, bone mineral density was assessed via Dual Energy X-ray Absorptiometry (DEXA) prior to treatment. Groups 1 and 2 were fed casein-based diets throughout the entire length of the study and served as the control groups. Treatments were initiated for Groups 3-15 forty days post ovariectomy surgery and followed for 60 days. Bone mineral density was assessed before and after treatments. Two days prior to the termination of the study, rats were placed in individual metabolic cages and urine was collected from 18:00 h-6:00 h. During this period, the rats had no access to food. Urine was collected in acid-washed tubes, acidified with 0.03 ml of 6 mol/L of HCl per ml of urine and the total volume was measured. At the end of the study, the rats were anesthetized with ketomine and xylazine (intraperitoneally; 100 mg and 5 mg/kg body weight, respectively) and exsanguinated. Blood was collected, serum separated and aliquoted in small samples. All urine and plasma samples were frozen at −20° C. until analyses. Femurs and 3-5 lumbar spine were dissected out for bone analyses. Initial and weekly body weights were measured. Sham animals were fed ad libitum and their precise food intakes were measured every three days. Before each feeding, the food remaining was weighed and the amount ingested was calculated. Rats in the other groups were pair-fed to the mean intake of the sham animals and had free access to deionized water.
(§4) The design was a randomized, prospective, single-blind, positive controlled, parallel study. Control groups were fed a casein-based diet. Treatment groups were fed semi-purified diets containing casein, fructooligosaccharides, whole dried plum powder or dried plum polyphenol solids, dried plum juice solids, dried plum puree solids, dried plum skin solids or raisin solids or fig solids or date solids or blueberry solids or HMB. The treatment groups are outlined in following table:
(§5) One hundred fifty, (n=10/group) ninety day old Harlan Sprague-Dawley, 210 gm, female rats were purchased from Harlan Sprague Dawley Inc. (Indianapolis, Ind.). Upon arrival at the institution, rats were individually housed in stainless steel wire mesh cages in an environmentally controlled animal laboratory at 25° C. with a 12 h light-dark cycle. The rats had free access to deionized water and semi-purified diets. They were handled according to National Institutes of Health guidelines for humane treatment of experimental animals.
The composition of the semi-purified casein-based diets are described in the following table. To ensure equivalency, the diets were assayed for carbohydrate, protein, fat, calcium and phosphorus content prior to the feeding protocol. All diets were prepared to be isonitrogenous, isocaloric and equivalent in calcium and phosphorus content. The diets consisted of approximately 22% protein, 67% carbohydrate and 11% fat. The treatment diets also contained 7.5% or 5% (w/w) dried plum powder (Sunsweet Growers, Inc., Pleasanton, Calif.), or 7.5% (w/w) dried plum solids from juice concentrate (Sunsweet Growers, Inc., Pleasanton, Calif.), or 7.5% (w/w) dried plum solids from puree (Sunsweet Growers, Inc., Pleasanton, Calif.), or 7.5% (w/w) dried plum solids from pulp/skins (Sunsweet Growers, Inc., Pleasanton, Calif.), or dried plum polyphenols equivalent to 7.5% (w/w) dried plum powder, or 7.5% (w/w) raisin solids (Mid America), or 7.5% (w/w) fig solids (Mid America), or 7.5% (w/w) date solids (Mid America), or 7.5% (w/w) blueberry solids (Mid America), or 0.25% (w/w) HMB (Metabolic Technologies, Inc., Ames, Iowa) and 5% or 2% (w/w) short chain fructooligosaccharides (NutraFlora®, FOS Golden Technologies, Inc). […]

[3] = tested on: ovariectomized (OVX) rats; test: Experiment III: micro-computed tomography
Description: as §3, §4, §5
The composition of the semi-purified casein-based diets are described in the following table. To ensure equivalency, the diets were assayed for carbohydrate, protein, fat, calcium and phosphorus content prior to the feeding protocol. All diets were prepared to be isonitrogenous, isocaloric and equivalent in calcium and phosphorus content. The diets consisted of approximately 22% protein, 67% carbohydrate and 11% fat. […]

[4] = Experiment III: body weight gain, fat gain and food intake
Description: as §1, §2

Q: For `CC(C)(O)CC(=O)O` [HMB, beta-hydroxy beta methylbutyrate], which “Serum IGF-1 levels compared to OVX-control” value [1] is on record?
A: significant increases

Q: What about the “effects on BMD” value [2] of the same compound?
A: no significant effects

Q: And the reversal of osteopenia [2]?
A: did not reverse established osteopenia

Q: And the “Bone mineral content (LS Mean ± SE) Femur” value ([2]; OVX rats)?
A: 0.4155 ± 0.00996

Q: And the “Bone mineral content (LS Mean ± SE) Spine” value ([2]; OVX rats)?
A: 0.1187 ± 0.00419

Q: And the “Bone mineral content (LS Mean ± SE) Whole body” value ([2]; OVX rats)?
A: 9.7590 ± 0.1323

Q: What about the “Bone mineral density (Mean ± SE) Femur” value ([2]; OVX rats) of the same compound?
A: 0.2198 ± 0.00293b

Q: What about the “Bone mineral density (Mean ± SE) Spine” value ([2]; OVX rats) of the same compound?
A: 0.2341 ± 0.0035bc

Q: What about the “Change in Bone mineral density (from Baseline) Whole body” value ([2]; OVX rats, baseline to final) of the same compound?
A: 0.00298 ± 0.00144ab

Q: What about the “Bone mineral density (Mean ± SE) Whole body” value ([2]; OVX rats, casein-based diets) of the same compound?
A: 0.1599 ± 0.0016b

Q: And the “Bone Volume/Total Volume (Ranked) Mean ± SE” value [3]?
A: 0.1141 ± 0.00658b

Q: What about the “Connective Density (Ranked) Mean ± SE” value [3] of the same compound?
A: 32.865 ± 2.472b

Q: What about the “Structural Model Index (Ranked) Mean ± SE” value [3] of the same compound?
A: 1.931 ± 0.04093a

Q: And the “Trabecular No. (Ranked) Mean ± SE” value [3]?
A: 1.649 ± 0.078c 1/mm

Q: What about the “Trabecular separation (Ranked) Mean ± SE” value [3] of the same compound?
A: 0.6555 ± 0.03361a mm

Q: And the “Body Weight Gain during Treatment period Mean ± SE” value ([4]; OVX rats, pair-fed to SHAM)?
A: 29.0 ± 6.9

Q: And the “fat gain during the treatment period” value ([4]; compared to OVX-control)?
A: significantly less fat gain
